Measured values published in PMC6814258 (Pharmaceutical research, 2019).
Counter-ions that a name gives are not always drawn.

Columns and labels:
Type in all cases: cell-based
Nav1.8 [1] = molecular target: T1, Nav1.8 (Homo sapiens, UniProt Q9Y5Y9); experiment: Nav1.8 automated patch clamp
Nav1.8 [2] = molecular target: T1, Nav1.8; experiment: Nav1.8 FLIPR HTS; settings: HEK293, read-out: Average percent inhibition at 10 μM (Nav1.8)
human KV7.1 = human KV7.1 (Homo sapiens, UniProt P51787); experiment: KV7.1 86Rb+ efflux HTS; settings: for inhibition at 10 µM: CHO, read-out: Average percent inhibition at 10 μM (KCNQ1)
human KV7.1, sequence (P51787 whole entry): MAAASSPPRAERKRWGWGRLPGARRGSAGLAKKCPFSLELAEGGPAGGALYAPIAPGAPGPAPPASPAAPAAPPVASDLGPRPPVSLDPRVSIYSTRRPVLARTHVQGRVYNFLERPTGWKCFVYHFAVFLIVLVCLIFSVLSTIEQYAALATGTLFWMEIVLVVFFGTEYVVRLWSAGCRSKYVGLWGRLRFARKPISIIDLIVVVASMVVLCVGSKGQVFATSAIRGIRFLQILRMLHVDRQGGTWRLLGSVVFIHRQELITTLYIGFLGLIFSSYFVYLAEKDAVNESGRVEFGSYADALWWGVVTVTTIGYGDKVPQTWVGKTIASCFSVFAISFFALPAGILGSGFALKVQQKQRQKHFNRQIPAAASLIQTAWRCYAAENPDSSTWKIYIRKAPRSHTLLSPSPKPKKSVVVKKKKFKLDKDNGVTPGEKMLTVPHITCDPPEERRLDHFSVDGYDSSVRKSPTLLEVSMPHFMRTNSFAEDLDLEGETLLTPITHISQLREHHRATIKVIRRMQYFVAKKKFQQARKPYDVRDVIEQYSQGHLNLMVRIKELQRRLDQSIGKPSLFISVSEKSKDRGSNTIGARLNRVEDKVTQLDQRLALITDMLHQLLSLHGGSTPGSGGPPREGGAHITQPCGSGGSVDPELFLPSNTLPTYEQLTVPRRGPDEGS

T1 sequence (Q9Y5Y9 whole entry): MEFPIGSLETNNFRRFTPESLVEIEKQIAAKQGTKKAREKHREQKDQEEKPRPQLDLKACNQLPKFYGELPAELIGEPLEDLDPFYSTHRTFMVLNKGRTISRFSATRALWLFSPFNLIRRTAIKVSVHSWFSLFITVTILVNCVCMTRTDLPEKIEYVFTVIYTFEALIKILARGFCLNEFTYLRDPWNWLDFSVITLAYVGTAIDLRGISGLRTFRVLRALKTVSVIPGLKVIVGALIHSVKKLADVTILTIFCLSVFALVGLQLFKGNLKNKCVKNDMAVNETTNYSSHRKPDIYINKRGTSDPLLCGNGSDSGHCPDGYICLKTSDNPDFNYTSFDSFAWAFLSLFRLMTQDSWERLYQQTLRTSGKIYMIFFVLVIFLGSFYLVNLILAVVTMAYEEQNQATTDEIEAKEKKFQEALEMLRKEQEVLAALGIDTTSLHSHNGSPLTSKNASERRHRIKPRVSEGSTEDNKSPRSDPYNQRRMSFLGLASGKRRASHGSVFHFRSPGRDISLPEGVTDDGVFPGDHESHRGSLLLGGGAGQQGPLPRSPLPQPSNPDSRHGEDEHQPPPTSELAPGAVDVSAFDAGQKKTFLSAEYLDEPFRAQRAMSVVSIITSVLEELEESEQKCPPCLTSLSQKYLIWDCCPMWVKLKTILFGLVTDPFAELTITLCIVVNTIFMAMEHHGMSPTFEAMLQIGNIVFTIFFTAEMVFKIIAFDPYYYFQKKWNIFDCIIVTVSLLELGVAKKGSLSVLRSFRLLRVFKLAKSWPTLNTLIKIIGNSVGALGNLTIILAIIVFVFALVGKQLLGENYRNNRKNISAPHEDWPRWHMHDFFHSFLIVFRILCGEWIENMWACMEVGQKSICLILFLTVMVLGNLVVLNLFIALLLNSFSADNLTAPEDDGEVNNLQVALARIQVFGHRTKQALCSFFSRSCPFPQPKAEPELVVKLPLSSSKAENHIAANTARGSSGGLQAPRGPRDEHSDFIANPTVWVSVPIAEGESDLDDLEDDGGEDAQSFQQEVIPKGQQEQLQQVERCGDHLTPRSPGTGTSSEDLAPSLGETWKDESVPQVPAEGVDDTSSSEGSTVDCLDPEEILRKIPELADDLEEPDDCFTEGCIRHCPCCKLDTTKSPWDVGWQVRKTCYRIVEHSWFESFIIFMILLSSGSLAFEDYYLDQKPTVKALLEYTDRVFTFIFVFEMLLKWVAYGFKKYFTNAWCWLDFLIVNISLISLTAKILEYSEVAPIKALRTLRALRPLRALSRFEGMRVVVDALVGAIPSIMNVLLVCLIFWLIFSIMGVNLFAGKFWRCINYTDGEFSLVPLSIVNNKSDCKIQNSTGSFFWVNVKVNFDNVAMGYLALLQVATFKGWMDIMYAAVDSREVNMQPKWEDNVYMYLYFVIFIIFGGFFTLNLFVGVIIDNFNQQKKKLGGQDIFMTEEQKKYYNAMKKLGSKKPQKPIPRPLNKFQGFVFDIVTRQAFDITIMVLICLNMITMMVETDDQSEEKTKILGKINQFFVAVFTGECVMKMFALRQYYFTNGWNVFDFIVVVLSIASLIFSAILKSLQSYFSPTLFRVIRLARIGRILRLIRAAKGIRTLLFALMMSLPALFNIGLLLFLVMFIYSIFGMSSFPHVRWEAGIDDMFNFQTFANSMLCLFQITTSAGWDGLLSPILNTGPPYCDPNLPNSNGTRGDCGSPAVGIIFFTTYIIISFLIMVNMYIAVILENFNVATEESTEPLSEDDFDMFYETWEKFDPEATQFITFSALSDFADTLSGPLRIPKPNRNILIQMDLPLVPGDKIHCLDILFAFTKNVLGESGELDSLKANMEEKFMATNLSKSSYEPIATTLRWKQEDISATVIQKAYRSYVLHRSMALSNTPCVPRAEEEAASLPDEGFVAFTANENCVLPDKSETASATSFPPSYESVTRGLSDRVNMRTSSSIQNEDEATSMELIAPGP

SMILES	inhibition at 10 µM (Nav1.8 [2]) [%]	inhibition at 10 µM (human KV7.1) [%]	also measured
COC(=O)C1=C(C)NC(C)=C(C(=O)OC2CCCN(Cc3ccccc3)C2)C1c1cccc([N+](=O)[O-])c1 (centres unmarked) [Benidipine hydrochloride]	113	51.1	IC50 (Nav1.8 [1]): 4400 nM
CC/C(=C(/CC)c1ccc(O)cc1)c1ccc(O)cc1 [Diethylstilbestrol]	99.5	90.2	–
CC[C@H](c1ccc(O)cc1)[C@@H](CC)c1ccc(O)cc1 [Hexestrol]	91.6	82	–
CC(C)OC(=O)CCC/C=C\C[C@@H]1[C@@H](CC[C@@H](O)CCc2ccccc2)[C@H](O)C[C@@H]1O [Latanoprost]	–	63.7	–
COc1cccc(N(C)C(=S)Oc2ccc3c(c2)CCCC3)n1 [Liranaftate]	–	62.8	–
C[C@H](CCC(=O)O)[C@H]1CC[C@H]2[C@@H]3CC[C@@H]4C[C@H](O)CC[C@]4(C)[C@H]3CC[C@]12C [Lithocholic acid]	–	80.8	–
Clc1ccc(COC(Cn2ccnc2)c2ccc(Cl)cc2Cl)c(Cl)c1 (centres unmarked) [Miconazole]	–	79.8	–
Clc1ccc(C(c2ccccc2Cl)C(Cl)Cl)cc1 (centres unmarked) [Mitotane]	–	49.5	–
COC(=O)C1=C(C)NC(C)=C(C(=O)OCCN(C)Cc2ccccc2)C1c1cccc([N+](=O)[O-])c1 (centres unmarked) [Nicardipine hydrochloride]	123	50.7	IC50 (Nav1.8 [1]): 600 nM
COC(=O)C1=C(C#N)NC(C)=C(C(=O)OC(C)C)C1c1cccc([N+](=O)[O-])c1 (centres unmarked) [Nilvadipine]	87.9	–	IC50 (Nav1.8 [1]): 600 nM
CS(=O)(=O)Nc1ccc([N+](=O)[O-])cc1Oc1ccccc1 [Nimesulide]	–	47.9	–
COCCOC(=O)C1=C(C)NC(C)=C(C(=O)OC(C)C)C1c1cccc([N+](=O)[O-])c1 (centres unmarked) [Nimodipine]	96.1	–	IC50 (Nav1.8 [1]): 1200 nM
COC(=O)C1=C(C)NC(C)=C(C(=O)OCC(C)C)C1c1ccccc1[N+](=O)[O-] (centres unmarked) [Nisoldipine]	–	48	–
CCOC(=O)C1=C(C)NC(C)=C(C(=O)OC)C1c1cccc([N+](=O)[O-])c1 (centres unmarked) [Nitrendipine]	–	46.1	–
COc1ccc(C(=O)c2ccccc2)c(O)c1 [Oxybenzone]	–	57.4	–
COc1ccc(Cc2nccc3cc(OC)c(OC)cc23)cc1OC [Papaverine hydrochloride]	–	45.6	–

SMILES	inhibition at 10 µM (Nav1.8 [2]) [%]	inhibition at 10 µM (human KV7.1) [%]	also measured
Fc1ccc([C@@H]2CCNC[C@H]2COc2ccc3c(c2)OCO3)cc1 [Paroxetine Hydrochloride]	–	59.9	–
c1ccc2c(c1)Nc1ccccc1S2 [Phenothiazine]	–	59.8	–
CCN1CCN(C(=O)N[C@@H](C(=O)N[C@@H]2C(=O)N3[C@@H]2SC(C)(C)[C@@H]3C(=O)O)c2ccccc2)C(=O)C1=O [Piperacillin sodium salt]	–	43.5	–
CC(=O)SCC(Cc1ccccc1)C(=O)NCC(=O)OCc1ccccc1 (centres unmarked) [Racecadotril]	94.8	46.4	–
O=C(c1ccc(OCCN2CCCCC2)cc1)c1c(-c2ccc(O)cc2)sc2cc(O)ccc12 [Raloxifene hydrochloride]	88.4	43.3	–
Clc1ccc(C(Cn2ccnc2)OCc2csc3c(Cl)cccc23)c(Cl)c1 (centres unmarked) [Sertaconazole nitrate]	–	58.6	–
C[C@]12Cc3c[nH]nc3C[C@@H]1CC[C@@H]1[C@@H]2CC[C@@]2(C)[C@H]1CC[C@]2(C)O [Stanozolol]	–	43.6	–
CCSc1ccc2c(c1)N(CCCN1CCN(C)CC1)c1ccccc1S2.O=C(O)CC(O)C(=O)O.O=C(O)CC(O)C(=O)O [Thiethylperazine dimalate]	–	–	Average percent inhibition at 10 μM (KCNQ1) (human KV7.1; 10 μM, n=2, CHO cells, 86Rb+ efflux, normalized to 10 μM chromanol 293B control): 56.9%
C#C[C@]1(O)CC[C@H]2[C@@H]3[C@H](C)CC4=C(CCC(=O)C4)[C@H]3CC[C@@]21C [Tibolone]	–	87.6	–
Clc1ccc(C(Cn2ccnc2)OCc2ccsc2Cl)c(Cl)c1 (centres unmarked) [Tioconazole]	–	53.5	–
Cc1cccc(N(C)C(=S)Oc2ccc3ccccc3c2)c1 [Tolnaftate]	–	69.4	–
CC1(C)O[C@@H]2[C@@H](CO[C@@]3(COS(N)(=O)=O)OC(C)(C)O[C@@H]23)O1 [Topiramate]	–	44.3	–
CCOC1O[C@H]([C@@H](COCc2ccccc2)OCc2ccccc2)[C@H](OCc2ccccc2)[C@H]1O (some centres unmarked) [Tribenoside]	86.2	48.8	–
CSc1nc2cc(Cl)c(Oc3cccc(Cl)c3Cl)cc2[nH]1 [Triclabendazole]	–	76	–
Oc1cc(Cl)ccc1Oc1ccc(Cl)cc1Cl [Triclosan]	87.8	74	–
Cc1c(C)c2c(c(C)c1O)CCC(C)(COc1ccc(CC3SC(=O)NC3=O)cc1)O2 (centres unmarked) [Troglitazone]	–	73	–
